Test [1] concerns the target angiotensin II AT1 receptor. The test is described as follows: Assay A: Angiotensin II binding activity (125I-AII displacement, rat uterine membrane preparation).
The subject of another test is rabbit aortic rings. Put plainly: Assay B: In vitro vascular smooth muscle response for AII (antagonist activity, pA2). Format: cell-based. As to conditions: in vitro vascular smooth muscle response, two values per cell separated by / are separate determinations; for Kb: Oryctolagus cuniculus, read-out: Assay B pA2 (converted). The procedure:
Assay B: In Vitro Vascular Smooth Muscle-response for AII
The compounds of the invention were tested for antagonist activity in rabbit aortic rings. Male New Zealand white rabbits (2-2.5 kg) were sacrificed using an overdose of pentobarbital and exsanguinated via the carotid arteries. The thoracic aorta was removed, cleaned of adherent fat and connective tissue and then cut into 3-mm ring segments. The endothelium was removed from the rings by gently sliding a rolled-up piece of filter paper into the vessel lumen. The rings were then mounted in a water-jacketed tissue bath, maintained at 37° C., between moveable and fixed ends of a stainless steel wire with the moveable end attached to an FT03 Grass transducer coupled to a Model 7D Grass Polygraph for recording isometric force responses. The bath was filled with 20 ml of oxygenated (95% oxygen/5% carbon dioxide) Krebs solution of the following composition (mM): 130 NaCl, […], 15 KCl, 1.2 NaH2PO4, 1.2 MgSO4, 2.5 CaCl2, and 11.4 glucose. The preparations were equilibrated for one hour before approximately one gram of passive tension was placed on the rings. Angiotensin II concentration-response curves were then recorded (3×10^−10 to 1×10^−5 M). Each concentration of AII was allowed to elicit its maximal contraction, and then AII was washed out repeatedly for 30 minutes before rechallenging with a higher concentration of AII. Aorta rings were exposed to the test antagonist at […] for 5 minutes before challenging with AII. Adjacent segments of the same aorta ring were used for all concentration-response curves in the presence or absence of the test antagonist. The effectiveness of the test compound was expressed in terms of pA2 values and were calculated according to H. O. Schild [Br. J. Pharmacol, Chemother., 2,189-206 (1947)]. The pA2 value is the concentration of the antagonist which increases the EC50 value for AII by a factor of two. Each test antagonist was evaluated in aorta rings from two rabbits.

The results in this text go back to patent publication US6653306B1, “Epoxy-steroidal aldosterone antagonist and angiotensin II antagonist combination therapy” (G.D. Searle & Co., priority 1995, dated 2003).

Each structure is given as a SMILES string. Where “and” joins values, the source holds several entries; their conditions need not be identical. Identical values can stand only once.

By IC50 is commonly meant the concentration that inhibits the measured activity by half. Consider `CCCCc1nc(C2CCCCC2)n(Cc2ccc(-c3ccccc3-c3nnn[nH]3)cc2)n1` [Compound 65], for which, in test [1], the 50% inhibitory concentration (IC50) came out at 23 nM. Moreover, the Kb in the test on rabbit aortic rings was 14.1 nM.
In test [1], `CCCCc1nc(C(F)(F)Cc2ccccc2)nn1Cc1ccc(-c2ccccc2-c2nnn[nH]2)cc1` [Compound 51] gave a half-maximal inhibitory concentration (IC50) of 8.7 nM. Also, the Kb in the test with rabbit aortic rings is 4.07 nM.
`CCCCc1nc(CCC(C)C)nn1Cc1ccc(-c2ccccc2-c2nnn[nH]2)cc1` [Compound 17]: in test [1], the IC50 was 4 nM. Besides, the Kb in the test with rabbit aortic rings is 2.29 nM.
As for `CCCCc1nc(C=O)nn1Cc1ccc(-c2ccccc2-c2nnn[nH]2)cc1` [Compound 49], the IC50 in test [1] is 120 nM. Moreover, the Kb with rabbit aortic rings was 87.1 nM.
The corresponding values for `CCCCc1nc(C(=O)NC)nn1Cc1ccc(-c2ccccc2-c2nnn[nH]2)nc1` [Compound 257] are 160 nM and 234 nM.
The molecule `CCCCc1nc(C(=O)O)nn1Cc1ccc(-c2ccccc2-c2nnn[nH]2)cc1` [Compound 52] yielded an IC50 in test [1] of 100 nM. For the same molecule, the Kb in the test on rabbit aortic rings is 7.24 nM.
`CCCCc1nc(CCC)nn1Cc1ccc(-c2ccccc2-c2nnn[nH]2)cc1` [Compound 14] displayed an IC50 in test [1] of 7.2 nM. Further, the Kb in the test with rabbit aortic rings was 1.45 nM.
The corresponding values for `CCCCc1nn(CCC2CCCCC2)c(=O)n1Cc1ccc(-c2ccccc2-c2nn[nH]n2)cc1` [Compound 89] are 18 nM and 12.6 nM.
The molecule `CCCCc1ncn(Cc2ccc(-c3ccccc3-c3nnn[nH]3)cc2)n1` [Compound 54] displayed a half-inhibitory concentration (IC50) in test [1] of 3100 nM. Moreover, the Kb in the test on rabbit aortic rings was 955 nM.
Taken in the same sequence, the figures for `CCCCn1nc(C(F)(F)CCC)nc1Cc1ccc(-c2ccccc2-c2nnn[nH]2)cc1` [Compound 130] were 40 nM and 7.94 nM.
The molecule `CCCCc1nc(Cc2ccc(-c3ccccc3-c3nnn[nH]3)cc2)nn1CCCC` [Compound 129] yielded an IC50 in test [1] of 6700 nM. Further, the Kb with rabbit aortic rings is 5010 nM.
The corresponding values for `CCCCc1nc(CC2CCCCC2)n(Cc2ccc(-c3ccccc3-c3nnn[nH]3)cc2)n1` [Compound 73] are 790 nM and 22.4 nM.
`CCCCn1nc(C=O)nc1Cc1ccc(-c2ccccc2-c2nnn[nH]2)nc1` [Compound 179]: in test [1], the IC50 was 310 nM. Besides, in the test with rabbit aortic rings, the Kb is 214 nM.
For the molecule `CCCCc1nc(Cc2ccc(-c3ccccc3-c3nnn[nH]3)cc2)n(CCCC)n1` [Compound 128], the half-inhibitory concentration (IC50) in test [1] was 16 nM. In the test on rabbit aortic rings, the Kb is 2.34 nM.
As to `CCCn1nc(C(OC)OC)nc1Cc1ccc(-c2ccccc2-c2nnn[nH]2)nc1` [Compound 174], the half-maximal inhibitory concentration (IC50) in test [1] came to 180 nM. Also, in the test with rabbit aortic rings, the Kb is 51.3 nM.
Taken in the same sequence, the figures for `CCCCc1c(C)n(CCCC)c(=O)n1Cc1ccc(-c2ccccc2-c2nnn[nH]2)cc1` [Compound 137] were 220 nM and 5.01 nM.
The corresponding values for `CCCCc1nc(Cc2ccc(-c3ccccc3-c3nnn[nH]3)nc2)n(CC(CC)CC)n1` [Compound 157] are 530 nM and 603 nM.
Taken in the same sequence, the figures for `CCCCc1nc(CCCC)n(Cc2ccc(-n3c(Br)ccc3-c3nnn[nH]3)cc2)n1` [Compound 141] were 0.11 nM and 9.55 nM.
The molecule `CCCCc1nc(CCC2CCCCC2)n(Cc2ccc(-c3ccccc3-c3nnn[nH]3)cc2)n1` [Compound 42] displayed a half-inhibitory concentration (IC50) in test [1] of 370 nM. Besides, in the test with rabbit aortic rings, the Kb was 275 nM.
Taken in the same sequence, the figures for `CCCCn1nc(C(C#N)CCC)n(Cc2ccc(-c3ccccc3-c3nn[nH]n3)cc2)c1=O` (centres unmarked) [Compound 106] were 48 nM and 20 nM.
With `CCCCc1nc(CCCO)n(Cc2ccc(-c3ccccc3-c3nnn[nH]3)cc2)n1` [Compound 46], in test [1], the IC50 was determined as 110 nM. The Kb in the test with rabbit aortic rings was 158 nM.
The corresponding values for `CCCCc1nc(C(OC)OC)nn1Cc1ccc(-c2ccccc2-c2nnn[nH]2)cc1` [Compound 24] are 10 nM and 27.5 nM.
Taken in the same sequence, the figures for `CCCCc1nc(C(=O)NC)n(Cc2ccc(-c3ccccc3-c3nnn[nH]3)nc2)n1` [Compound 258] were 350 nM and 145 nM.
In the case of `CCCCn1nc(C(=O)CCC)nc1Cc1ccc(-c2ccccc2-c2nnn[nH]2)nc1` [Compound 160], the half-inhibitory concentration (IC50) in test [1] was determined as 64 nM. In addition, in the test with rabbit aortic rings, the Kb was 13.5 nM.
Taken in the same sequence, the figures for `CCCCn1nc(C(C)(F)F)nc1Cc1ccc(-c2ccccc2-c2nnn[nH]2)nc1` [Compound 166] were 160 nM and 26.9 nM.
In turn, `CCCCn1nc(CCc2ccccc2)nc1Cc1ccc(-c2ccccc2-c2nnn[nH]2)nc1` [Compound 151] had a concentration for half-maximal inhibition (IC50) in test [1] of 17 nM. The Kb in the test with rabbit aortic rings was 17.4 nM.
The corresponding values for `CCCCc1nc(C)nn1Cc1ccc(-c2ccccc2C(=O)O)cc1` [Compound 280] are 480 nM and 389 nM.
Taken in the same sequence, the figures for `CCCCc1nc(CCCO)nn1Cc1ccc(-c2ccccc2-c2nnn[nH]2)cc1` [Compound 45] were 4.4 nM and 3.89 nM.
In test [1], `CCCCc1nn(CC(O)c2cc(OC)ccc2OC)c(=O)n1Cc1ccc(-c2ccccc2-c2nn[nH]n2)cc1` (centres unmarked) [Compound 98] showed an IC50 of 22 nM. Besides, the Kb in the test on rabbit aortic rings was 7.94 nM.
Taken in the same sequence, the figures for `CCCCc1nc(C(=O)Cc2ccccc2)nn1Cc1ccc(-c2ccccc2-c2nnn[nH]2)cc1` [Compound 50] were 54 nM and 19.5 nM.
Taken in the same sequence, the figures for `CCCn1nc(C(F)(F)CC)nc1Cc1ccc(-c2ccccc2-c2nnn[nH]2)nc1` [Compound 167] were 370 nM and 83.2 nM.
Molecule `CCCCc1nc(CC)nn1Cc1ccc(-c2ccccc2-c2nnn[nH]2)cc1` [Compound 39] came in with an IC50 in test [1] of 10 nM. Besides, the Kb in the test on rabbit aortic rings is 13.2 nM.
The corresponding values for `CCCCc1nc(CC(OCC)OCC)n(Cc2ccc(-c3ccccc3-c3nnn[nH]3)cc2)n1` [Compound 37] are 340 nM and 126 nM.
The corresponding values for `CCCCc1cn(-c2c(C(C)C)cccc2C(C)C)c(=O)n1Cc1ccc(-c2ccccc2-c2nnn[nH]2)cc1` [Compound 277] are 190 nM and 288 nM.
Taken in the same sequence, the figures for `CCCc1cn(CCC)c(=O)n1Cc1ccc(-c2ccccc2-c2nnn[nH]2)cc1` [Compound 138] were 130 nM and 6.31 nM.
In test [1], `CCCCc1nn(CC(=O)C23CC4CC(CC(C4)C2)C3)c(=O)n1Cc1ccc(-c2ccccc2-c2nn[nH]n2)cc1` [Compound 80] showed a half-maximal inhibitory concentration (IC50) of 25 nM. The Kb in the test with rabbit aortic rings was 7.94 nM.
The corresponding values for `CCCCc1nc(CC23CC4CC(CC(C4)C2)C3)nn1Cc1ccc(-c2ccccc2-c2nnn[nH]2)cc1` [Compound 62] are 26 nM and 2.04 nM.
On to `CCCCc1nc(CNC(=O)OC(C)(C)C)nn1Cc1ccc(-c2ccccc2-c2nnn[nH]2)cc1` [Compound 35], for which, in test [1], the concentration for half-maximal inhibition (IC50) is 41 nM. Further, the Kb with rabbit aortic rings was 56.2 nM.
`CCCCc1nc(CCC(=O)O)nn1Cc1ccc(-c2ccccc2-c2nnn[nH]2)cc1` [Compound 63]: the half-inhibitory concentration (IC50) in test [1] stood at 61 nM. In the test with rabbit aortic rings, the Kb is 17 nM.
Take `CCCCc1nc(CCCN)nn1Cc1ccc(-c2ccccc2-c2nnn[nH]2)cc1` [Compound 72]: the IC50 in test [1] turned out to be 83 nM. The Kb in the test with rabbit aortic rings is 776 nM.
Taken in the same sequence, the figures for `CCCCc1ncnn1Cc1ccc(-c2ccccc2-c2nnn[nH]2)cc1` [Compound 53] were 65 nM and 27.5 nM.
The corresponding values for `CCCCc1cn(CCCC)c(=O)n1Cc1ccc(-c2ccccc2-c2nnn[nH]2)cc1` [Compound 132] are 12 nM and 2.51 nM.
The molecule `CCCCc1cn(-c2c(C)cc(C(C)(C)C)cc2C)c(=O)n1Cc1ccc(-c2ccccc2-c2nnn[nH]2)cc1` [Compound 279] displayed a concentration for half-maximal inhibition (IC50) in test [1] of 270 nM. For the same molecule, the “Assay B pA2” value in the test with rabbit aortic rings is 8.06 and 8.25.
For the molecule `CCCCc1nc(CCCC2CCCCC2)nn1Cc1ccc(-c2ccccc2-c2nnn[nH]2)cc1` [Compound 58], the IC50 in test [1] came out at 140 nM. Besides, in the test on rabbit aortic rings, the Kb is 355 nM.
The corresponding values for `CCCCc1nn(C(C)(C)C(=O)c2ccccc2)c(=O)n1Cc1ccc(-c2ccccc2-c2nn[nH]n2)cc1` [Compound 102] are 43 nM and 20 nM.
The corresponding values for `CCCCc1nc(CCC(C)C)n(Cc2ccc(-c3ccccc3-c3nnn[nH]3)cc2)n1` [Compound 16] are 6.4 nM and 1.12 nM.
The corresponding values for `CCCCc1nn(Cc2ccc3ccccc3c2)c(=O)n1Cc1ccc(-c2ccccc2-c2nn[nH]n2)cc1` [Compound 99] are 280 nM and 316 nM.
In turn, `CCCCc1nc(Cc2ccc(-c3ccccc3C(=O)O)cc2)n(CCCC)n1` [Compound 126] yielded a 50% inhibitory concentration (IC50) in test [1] of 240 nM. In addition, the Kb in the test with rabbit aortic rings was 63.1 nM.
Taken in the same sequence, the figures for `CCCCc1nn(CC(=O)c2cc(OC)ccc2OC)c(=O)n1Cc1ccc(-c2ccccc2-c2nn[nH]n2)cc1` [Compound 96] were 21 nM and 10 nM.
